Paper PMC6345968, “Structural basis for species-selective targeting of Hsp90 in a pathogenic fungus” (Nature Communications, 2019)
Like-named read-outs stand apart in the source and are kept apart here.

Assays:
Hsp90 in HEPG2 lysate = settings: HepG2 lysate
human Hsp90 NBD = human Hsp90 NBD (Homo sapiens, UniProt P08238); settings: 0.1 nM Cy3-GdA, Human NBD-Hsp90 (10 nM); for FP signal (raw) / FP signal as fraction of no-compound (0 uM) control: Experiments 1-3
[1] = target: T1, Hsp90 in C. albicans (SC5314) lysate (Candida albicans, UniProt P46598); test: biochemical; type: binding; settings: SC5314 lysate
T1 construct: endogenous in cells; host or cells: C. albicans SC5314 whole-cell lysate
T1 sequence (P46598 whole entry): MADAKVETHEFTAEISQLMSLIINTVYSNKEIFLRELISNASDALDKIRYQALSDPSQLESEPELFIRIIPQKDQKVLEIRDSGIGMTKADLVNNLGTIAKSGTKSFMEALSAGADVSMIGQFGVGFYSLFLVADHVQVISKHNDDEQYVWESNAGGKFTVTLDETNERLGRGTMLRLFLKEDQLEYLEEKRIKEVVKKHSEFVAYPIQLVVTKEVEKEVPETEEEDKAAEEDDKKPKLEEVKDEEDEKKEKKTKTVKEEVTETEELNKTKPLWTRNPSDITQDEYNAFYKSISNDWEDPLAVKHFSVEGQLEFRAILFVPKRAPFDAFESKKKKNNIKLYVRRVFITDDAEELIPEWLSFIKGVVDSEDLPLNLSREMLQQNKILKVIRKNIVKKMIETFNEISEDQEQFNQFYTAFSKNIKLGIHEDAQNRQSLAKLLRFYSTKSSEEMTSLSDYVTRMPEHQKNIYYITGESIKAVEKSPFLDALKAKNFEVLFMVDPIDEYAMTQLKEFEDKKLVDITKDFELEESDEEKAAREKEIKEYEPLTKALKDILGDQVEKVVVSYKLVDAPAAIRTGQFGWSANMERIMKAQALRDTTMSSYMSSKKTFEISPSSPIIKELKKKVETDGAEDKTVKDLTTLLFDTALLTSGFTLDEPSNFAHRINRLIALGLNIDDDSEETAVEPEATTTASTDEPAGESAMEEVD

human Grp94 NBD = human Grp94 NBD (Homo sapiens, UniProt P14625); settings: 0.1 nM Cy3-GdA; for FP signal (raw) / FP signal as fraction of no-compound (0 uM) control: Experiments 1-3
human Grp94 NBD, sequence (P14625 63-337): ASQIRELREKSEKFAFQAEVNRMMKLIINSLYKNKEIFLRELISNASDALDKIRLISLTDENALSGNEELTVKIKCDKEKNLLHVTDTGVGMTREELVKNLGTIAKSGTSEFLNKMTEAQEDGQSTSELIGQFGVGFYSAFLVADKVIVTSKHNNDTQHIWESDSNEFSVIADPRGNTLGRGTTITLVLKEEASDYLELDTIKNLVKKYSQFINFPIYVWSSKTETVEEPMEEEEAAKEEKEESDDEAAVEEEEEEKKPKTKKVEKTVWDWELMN

C. albicans Hsp90 NBD = target: T2, C. albicans Hsp90 NBD (Candida albicans, UniProt P46598); test: biochemical; type: binding; settings: 0.1 nM Cy3-GdA, C. albicans NBD-Hsp90 (10 nM); for FP signal (raw) / FP signal as fraction of no-compound (0 uM) control: Experiments 1-3
T2 construct: C. albicans Hsp90 (E7-K218); made in house; host or cells: E. coli Rosetta2
T2 sequence (P46598 7-218): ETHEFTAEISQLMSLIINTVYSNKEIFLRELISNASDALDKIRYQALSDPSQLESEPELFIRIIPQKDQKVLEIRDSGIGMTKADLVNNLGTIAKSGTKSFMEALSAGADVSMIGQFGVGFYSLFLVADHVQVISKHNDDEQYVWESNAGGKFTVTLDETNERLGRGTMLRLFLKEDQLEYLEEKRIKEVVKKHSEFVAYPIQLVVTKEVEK

Hsp90 in 3T3 lysate = test: FP competition in whole-cell lysate; type: binding, mouse; settings: 3T3 lysate
Method: After vortexing, cell lysate was frozen at −80 °C for 2 h, followed by thawing on ice. The vortex-freeze-thaw step was repeated. […] Aliquots were thawed immediately prior to use.

[2] = Experiments 1-3, one value per experiment

human Hsp90 NBD, sequence (P08238 1-223): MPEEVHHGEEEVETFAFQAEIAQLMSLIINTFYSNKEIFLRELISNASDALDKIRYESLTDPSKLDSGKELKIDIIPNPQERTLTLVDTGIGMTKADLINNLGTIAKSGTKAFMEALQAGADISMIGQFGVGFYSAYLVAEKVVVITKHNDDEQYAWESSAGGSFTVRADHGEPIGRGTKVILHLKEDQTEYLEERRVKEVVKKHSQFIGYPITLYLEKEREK

## COc1ccc(CON=C2C=CC=CC3OC3CC(C)OC(=O)c3c(O)cc(O)cc3C2)cc1 (mixture of isomers) [CMLD075]
Hsp90 in HEPG2 lysate; 0.01 uM
  FP signal (raw): 200
  FP signal, fraction of control: 0.9132
Hsp90 in HEPG2 lysate; 0.02 uM
  FP signal (raw): 199
  FP signal, fraction of control: 0.9087
Hsp90 in HEPG2 lysate; 0.078 uM
  FP signal (raw): 186
  FP signal, fraction of control: 0.8493
Hsp90 in HEPG2 lysate; 0.313 uM
  FP signal (raw): 164
  FP signal, fraction of control: 0.7489
Hsp90 in HEPG2 lysate; 0.625 uM
  FP signal (raw): 146
  FP signal, fraction of control: 0.6667
Hsp90 in HEPG2 lysate; 2.5 uM
  FP signal (raw): 88
  FP signal, fraction of control: 0.4018
Hsp90 in HEPG2 lysate; 5 uM
  FP signal (raw): 53
  FP signal, fraction of control: 0.242
Hsp90 in HEPG2 lysate; 10 uM
  FP signal (raw): 32
  FP signal, fraction of control: 0.1461
Hsp90 in HEPG2 lysate; fit against log conc uM
  EC50: 1.8 µM
Human Hsp90 NBD; [2]
  EC50: 1250 nM
Human Hsp90 NBD; Cmpd 0.002 uM
  FP signal (raw): 100
  FP signal as fraction of no-compound (0 uM) control: 0.9615
Human Hsp90 NBD; Cmpd 0.004 uM
  FP signal (raw): 101
  FP signal as fraction of no-compound (0 uM) control: 0.9712
Human Hsp90 NBD; Cmpd 0.008 uM
  FP signal (raw): 101
  FP signal as fraction of no-compound (0 uM) control: 0.9712
Human Hsp90 NBD; Cmpd 0.016 uM
  FP signal (raw): 99
  FP signal as fraction of no-compound (0 uM) control: 0.9519
Human Hsp90 NBD; Cmpd 0.063 uM
  FP signal (raw): 96
  FP signal as fraction of no-compound (0 uM) control: 0.9231
Human Hsp90 NBD; Cmpd 0.25 uM
  FP signal (raw): 85
  FP signal as fraction of no-compound (0 uM) control: 0.8173
Human Hsp90 NBD; Cmpd 0.5 uM
  FP signal (raw): 85
  FP signal as fraction of no-compound (0 uM) control: 0.8173
Human Hsp90 NBD; Cmpd 1 uM
  FP signal (raw): 59
  FP signal as fraction of no-compound (0 uM) control: 0.5673
Human Hsp90 NBD; Cmpd 2 uM
  FP signal (raw): 28
  FP signal as fraction of no-compound (0 uM) control: 0.2692
[1]; 0.002 uM
  FP signal (raw): 169
  FP signal, fraction of control: 0.8989
[1]; 0.004 uM
  FP signal (raw): 160
  FP signal, fraction of control: 0.8511
[1]; 0.008 uM
  FP signal (raw): 155
  FP signal, fraction of control: 0.8245
[1]; 0.01 uM
  FP signal (raw): 60
  FP signal, fraction of control: 0.3226
[1]; 0.016 uM
  FP signal (raw): 142
  FP signal, fraction of control: 0.7553
[1]; 0.02 uM
  FP signal (raw): 50
  FP signal, fraction of control: 0.2688
[1]; 0.063 uM
  FP signal (raw): 103
  FP signal, fraction of control: 0.5479
[1]; 0.078 uM
  FP signal (raw): 24
  FP signal, fraction of control: 0.129
[1]; 0.25 uM
  FP signal (raw): 60
  FP signal, fraction of control: 0.3191
[1]; 0.313 uM
  FP signal (raw): 14
  FP signal, fraction of control: 0.07527
[1]; 0.5 uM
  FP signal (raw): 38
  FP signal, fraction of control: 0.2021
[1]; 0.625 uM
  FP signal (raw): 7
  FP signal, fraction of control: 0.03763
[1]; 1 uM
  FP signal (raw): 6
  FP signal, fraction of control: 0.03191
[1]; 2 uM
  FP signal (raw): 0
  FP signal, fraction of control: 0
[1]; 2.5 uM
  FP signal (raw): 3
  FP signal, fraction of control: 0.01613
[1]; 5 uM
  FP signal (raw): 0
  FP signal, fraction of control: 0
[1]; 10 uM
  FP signal (raw): -4
  FP signal, fraction of control: -0.02151
[1]; fit against log conc uM, read-out: EC50
  EC50: 0.102 µM
Human Grp94 NBD; [2]
  EC50: 261 nM
Human Grp94 NBD; Cmpd 0.002 uM
  FP signal (raw): 93
  FP signal as fraction of no-compound (0 uM) control: 0.9208
Human Grp94 NBD; Cmpd 0.004 uM
  FP signal (raw): 89
  FP signal as fraction of no-compound (0 uM) control: 0.8812
Human Grp94 NBD; Cmpd 0.008 uM
  FP signal (raw): 88
  FP signal as fraction of no-compound (0 uM) control: 0.8713
Human Grp94 NBD; Cmpd 0.016 uM
  FP signal (raw): 85
  FP signal as fraction of no-compound (0 uM) control: 0.8416
Human Grp94 NBD; Cmpd 0.063 uM
  FP signal (raw): 73
  FP signal as fraction of no-compound (0 uM) control: 0.7228
Human Grp94 NBD; Cmpd 0.25 uM
  FP signal (raw): 51
  FP signal as fraction of no-compound (0 uM) control: 0.505
Human Grp94 NBD; Cmpd 0.5 uM
  FP signal (raw): 33
  FP signal as fraction of no-compound (0 uM) control: 0.3267
Human Grp94 NBD; Cmpd 1 uM
  FP signal (raw): 15
  FP signal as fraction of no-compound (0 uM) control: 0.1485
Human Grp94 NBD; Cmpd 2 uM
  FP signal (raw): 11
  FP signal as fraction of no-compound (0 uM) control: 0.1089
C. albicans Hsp90 NBD; [2]
  EC50: 47.8 nM
C. albicans Hsp90 NBD; Cmpd 0.002 uM
  FP signal (raw): 81
  FP signal as fraction of no-compound (0 uM) control: 0.8526
C. albicans Hsp90 NBD; Cmpd 0.004 uM
  FP signal (raw): 80
  FP signal as fraction of no-compound (0 uM) control: 0.8421
C. albicans Hsp90 NBD; Cmpd 0.008 uM
  FP signal (raw): 78
  FP signal as fraction of no-compound (0 uM) control: 0.8211
C. albicans Hsp90 NBD; Cmpd 0.016 uM
  FP signal (raw): 72
  FP signal as fraction of no-compound (0 uM) control: 0.7579
C. albicans Hsp90 NBD; Cmpd 0.063 uM
  FP signal (raw): 36
  FP signal as fraction of no-compound (0 uM) control: 0.3789
C. albicans Hsp90 NBD; Cmpd 0.25 uM
  FP signal (raw): 16
  FP signal as fraction of no-compound (0 uM) control: 0.1684
C. albicans Hsp90 NBD; Cmpd 0.5 uM
  FP signal (raw): 10
  FP signal as fraction of no-compound (0 uM) control: 0.1053
C. albicans Hsp90 NBD; Cmpd 1 uM
  FP signal (raw): 7
  FP signal as fraction of no-compound (0 uM) control: 0.07368
C. albicans Hsp90 NBD; Cmpd 2 uM
  FP signal (raw): 8
  FP signal as fraction of no-compound (0 uM) control: 0.08421
Hsp90 in 3T3 lysate; 0.01 uM
  FP signal (raw): 243
  FP signal, fraction of control: 0.9681
Hsp90 in 3T3 lysate; 0.02 uM
  FP signal (raw): 243
  FP signal, fraction of control: 0.9681
Hsp90 in 3T3 lysate; 0.078 uM
  FP signal (raw): 240
  FP signal, fraction of control: 0.9562
Hsp90 in 3T3 lysate; 0.313 uM
  FP signal (raw): 223
  FP signal, fraction of control: 0.8884
Hsp90 in 3T3 lysate; 0.625 uM
  FP signal (raw): 206
  FP signal, fraction of control: 0.8207
Hsp90 in 3T3 lysate; 2.5 uM
  FP signal (raw): 144
  FP signal, fraction of control: 0.5737
Hsp90 in 3T3 lysate; 5 uM
  FP signal (raw): 102
  FP signal, fraction of control: 0.4064
Hsp90 in 3T3 lysate; 10 uM
  FP signal (raw): 52
  FP signal, fraction of control: 0.2072
Hsp90 in 3T3 lysate; fit against log conc uM
  EC50: 3.42 µM
